Reference: paper PMC10035507, “Inhibiting IGF1R-mediated Survival Signaling in Head and Neck Cancer with the Peptidomimetic SSTNIGF1R” (Cancer Research Communications, 2023)
Ends that are not written are not given here.

Legend:
UM-SCC47 cells [1] = test system: UM-SCC47 cells
UM-SCC47 cells [2] = experiment: Caspase assay (Caspase 3/7-GLO); assay type: cell-based, human; settings: 24 hours, increasing concentrations of NQD1 up to 30 μmol/L
Experimental: (§1) The activation of stress/apoptosis markers was analyzed as described previously ([17]). Caspase activity was measured in cells in complete culture medium with SSTNIGF1R or ASK inhibitor for 24 hours using Caspase 3/7-GLO in accordance with the manufacturer's instructions.

SCC25 cells [3] = test system: SCC25 cells
UM-SCC1 HNSCC cell line = experiment: Cell proliferation assay (CellTiter-GLO); assay type: cell-based, human; settings: 4 days, up to 30 μmol/L, n = 4
Experimental: (§2) Cells (1–2 × 10^3/well) were plated in 96-well plates in complete culture medium in the presence or absence of the SSTNIGF1R peptide for 72–120 hours, or alternatively in the presence or absence of the SSTNIGF1R peptide or ASK inhibitor for 24 hours. Cell growth was measured against a standard curve using CellTiter-GLO, in accordance with the manufacturer's instructions.

UD-SCC2 HNSCC cell line = experiment: Cell proliferation assay (CellTiter-GLO); assay type: cell-based, human; settings: 4 days, up to 30 μmol/L, n = 4
Experimental: as §2

normal HTE cells = experiment: Cell proliferation assay (CellTiter-GLO); assay type: cell-based, human; settings: 4 days, up to 30 μmol/L, n = 3
Experimental: as §2

HaCaT keratinocytes = experiment: Cell proliferation assay (CellTiter-GLO); assay type: cell-based, human; settings: 4 days, up to 30 μmol/L, n = 3
Experimental: as §2

SCC90 HNSCC cell line = experiment: Cell proliferation assay (CellTiter-GLO); assay type: cell-based, human; settings: 4 days, up to 30 μmol/L, n = 4
Experimental: as §2

[4] = test system: NOKs (normal oral keratinocytes); experiment: Cell proliferation assay (CellTiter-GLO); assay type: cell-based, human; settings: NOK, 4 days, up to 30 μmol/L, n = 3
Experimental: as §2

TU-138 HNSCC cell line = experiment: Cell proliferation assay (CellTiter-GLO); assay type: cell-based, human; settings: 4 days, up to 30 μmol/L, n = 4
Experimental: as §2

SCC6 HNSCC cell line = experiment: Cell proliferation assay (CellTiter-GLO); assay type: cell-based, human; settings: 4 days, up to 30 μmol/L, n = 4
Experimental: as §2

[5] = test system: ASK-1 in UW-SCC22 PDX tumors; experiment: pT845-ASK1 staining of tumor sections; assay type: in vivo, nude mice; settings: UW-SCC22 tumors treated by injection or pump for 4 weeks
Experimental: (§3) Paraffin-embedded PDX sections, sections of deidentified archival tumors from patients with tonsil carcinoma, or TMAs assembled from patients with deidentified oropharyngeal (TMA-01, TMA-02) or adenoid cystic (TMA-03) carcinoma were deparaffinized and subjected to antigen retrieval by heating in 10 mmol/L sodium citrate (pH 6.0) with 0.05% Tween 20 until boiling and then maintained at 99°C for 20 minutes before cooling to room temperature. The sections were then used for receptor and PLA staining, as described above. Fluorescent images were acquired using either a Zeiss PlanAPOCHROMAT 20X objective (0.8 NA) or 40X (1.4 NA) and a Zeiss AxioCam Mrm CCD camera on a Zeiss Axio Imager.M2 microscopy system. CellProfiler 3.1.5 (Carpenter Lab, Broad Institute of Harvard and MIT) was used to quantify nuclei and PLA signals with threshold limits based on relevant comparative controls. Cell Profiler software analysis was checked by direct comparison with visual quantification of PLA dots or DAPI-stained nuclei in test images to accurately quantify PLA dots per cell and to exclude false or background fluorescence. The specificity of the antibodies used and the concentrations of PLA reagents used were optimized on test samples before use on experimental sections.

[6] = test system: ASK-1 in UW-SCC64 PDX tumors; experiment: pT845-ASK1 staining of tumor sections; assay type: in vivo, nude mice; settings: as early as the 3-day timepoint
Experimental: as §3

HaCaT keratinocyte = experiment: Stress and apoptosis marker antibody array; assay type: cell-based, human; settings: 16 hours, 30 μmol/L (mSSTNIGF1R per Fig. 4B)
Experimental: as §1

HTE = experiment: Stress and apoptosis marker antibody array; assay type: cell-based, human; settings: 16 hours, 30 μmol/L (mSSTNIGF1R per Fig. 4B)
Experimental: as §1

NOK = experiment: Stress and apoptosis marker antibody array; assay type: cell-based, human; settings: 16 hours, 30 μmol/L (mSSTNIGF1R per Fig. 4B)
Experimental: as §1

UM-SCC47 cells [7] = experiment: Stress and apoptosis marker antibody array; assay type: cell-based, human; settings: UM-SCC47 lysates; 16 hours, 30 μmol/L (mSSTNIGF1R per Fig. 4B); compared with vehicle
Experimental: as §1

SCC25 cells [8] = experiment: Stress and apoptosis marker antibody array; assay type: cell-based, human; settings: SCC25 lysates; 16 hours, 30 μmol/L (mSSTNIGF1R per Fig. 4B); compared with vehicle
Experimental: as §1

[9] = allows use as a therapeutic agent in vivo; cited from earlier work
[10] = target: T1, ITGAV and IGF1R pairing in UW-SCC64 PDX tumors (Homo sapiens, UniProt P08069); experiment: PLA between IGF1R and ITGAV on tumor sections; assay type: in vivo, nude mice; settings: pump
T1 construct: from tissue; host or cells: UW-SCC22 and UW-SCC64 PDX tumours, subcutaneous in nude mice
Experimental: as §3

[11] = target: T2, ITGAV and IGF1R pairing in UW-SCC22 PDX tumors (Homo sapiens, UniProt P08069); experiment: PLA between IGF1R and ITGAV on tumor sections; assay type: in vivo, nude mice; settings: 4 weeks
T2 construct: from tissue; host or cells: UW-SCC22 and UW-SCC64 PDX tumours, subcutaneous in nude mice
Experimental: as §3

Serum IGF1 ELISA = assay type: in vivo, mice; settings: for IGF1 (ng/mL) ± SD: hSSTNIGF1R delivered by Alzet pumps, ELISA, n = 6
Experimental: (§4) SSTNIGF1R levels in the serum of treated animals were measured in triplicate using an AB Sciex QTrap 5500 mass spectrometry system at the UW School of Pharmacy and quantified by comparison with a standard curve of peptide in mouse serum. IGF1 levels in the serum of animals bearing UW-SCC22 or UW-SCC64 tumors were measured using an ELISA kit from Thermo Fisher Scientific (EMIGF1) and compared with a mouse IGF1 standard according to the manufacturer's instructions.

IGF1R in HaCat cells = target: T3, IGF1R in HaCat cells (Homo sapiens, UniProt P08069); experiment: IGF1R activation (pY1131) by immunoprecipitation and Western blot; assay type: cell-based; settings: 3 hours, 100 ng/mL DES(1–3)IGF1, 30 μmol/L hSSTNIGF1R
T3 construct: endogenous in cells; host or cells: HaCat
Experimental: (§5) Immunoprecipitation of IGF1R with or without competing SSTN peptide was carried out as described previously ([18, 19]) using 0.5–1.0 mg of input/sample and lysis buffer supplemented with HALT protease and phosphatase inhibitor cocktail (Thermo Fisher Scientific).

IGF1R in UM-SCC47 cells = target: T4, IGF1R in UM-SCC47 cells (Homo sapiens, UniProt P08069); experiment: as above; assay type: cell-based; settings: 3 hours, 100 ng/mL DES(1–3)IGF1, 30 μmol/L hSSTNIGF1R
T4 construct: constitutively active IGF1R is identified in UW-SCC47 cells by staining for pY1131; endogenous in cells; host or cells: UM-SCC47
Experimental: as §5

[12] = Serum peptide analysis by mass spectrometry; settings: mouse, in vivo, sc, mice, following sacrifice, 4.3 mg/kg/day by twice weekly subcutaneous injection, triplicate, read-out: steady-state concentration in plasma
Experimental: as §4

[13] = target: T5, IGF1R and ITGAV pairing (Sdc1:IGF1R:ITGAV receptor complex) in UM-SCC47 cells (Homo sapiens, UniProt P08069); experiment: Proximity ligation assay ITGAV:IGF1R in cultured cells; assay type: cell-based; settings: UM-SCC47 cells pretreated for 6 hours with 30 μmol/L; 15 images over three experiments
T5 construct: endogenous in cells; host or cells: UM-SCC47
Experimental: (§6) UM-SCC47 cells treated with or without the SSTNIGF1R peptide for 6 hours were fixed in 4% paraformaldehyde, permeabilized in 0.5% Triton X-100 in 1× CMF-PBS (pH 7.4), and blocked for 1 hour at room temperature in a 3% BSA/CMF-PBS solution. Cells were stained with 1 μg/mL anti-Sdc1 polyclonal antibody, 2 μg/mL ITGAV antibody (NBP1-85746), or 4 μg/mL antibody to IGF1R (AF-305-NA) for 1 hour at room temperature, followed by incubation with 4 μg/mL Alexa488-conjugated secondary antibodies for 1 hour at room temperature. The nuclei were stained with 3 μmol/L DAPI (Molecular Probes) in 1× CMF-PBS (pH 7.4) for 10 minutes. For PLA, antibodies against ITGAV and IGF1R were used as described previously, followed by staining with PLA reagents according to the manufacturer's instructions.

UW-SCC22 HNSCC PDX = experiment: PDX tumor growth in nude mice; assay type: in vivo; settings: 4 weeks; for reduction of tumor growth compared with controls: P < 0.001
From the text: (§7) Animal studies were approved by the University of Wisconsin–Madison Institutional Animal Care and Use Committee in accordance with the NIH guidelines. UW-SCC22 or UW-SCC64 PDXs derived from head and neck tumors ([31, 32]) were provided by Wisconsin Head and Neck Cancer SPORE (https://hn-spore.wisc.edu). Minced tissue isolated from host mice was subcutaneously injected into both flanks of 6–8 weeks old female, athymic Foxn1^nu outbred nude mice (Harlan Laboratories). After 1 week, animals were randomized and surgically implanted with Alzet (Durect Corp.) osmotic pumps (Model 2004) delivering 0.25 μL/hour of either PBS or PBS containing 4 mmol/L hSSTNIGF1R for 4 weeks. Animals were humanely sacrificed, bled, and tumors were removed and fixed in 4% paraformaldehyde before paraffin embedding and sectioning.

UW-SCC64 PDX = experiment: PDX tumor growth in nude mice; assay type: in vivo; settings: peptide delivered by the pump only, P < 0.001
From the text: as §7

[14] = test system: ASK1 (pT845), pp38MAPK, pJNK in UM-SCC47 cells; experiment: Temporal activation of ASK1, p38MAPK and JNK; assay type: cell-based, human; settings: 30 minutes after treatment with 30 μmol/L hSSTNIGF1R
[15] = test system: Sdc1, IGF1R, ITGAV cell surface expression in UM-SCC47 cells; experiment: Immunofluorescent receptor staining of cultured cells; assay type: cell-based, human; settings: UM-SCC47 cells pretreated 6 hours with 30 μmol/L, compared with vehicle alone
Experimental: as §6

T2 sequence (P08069 31-736 limits assumed): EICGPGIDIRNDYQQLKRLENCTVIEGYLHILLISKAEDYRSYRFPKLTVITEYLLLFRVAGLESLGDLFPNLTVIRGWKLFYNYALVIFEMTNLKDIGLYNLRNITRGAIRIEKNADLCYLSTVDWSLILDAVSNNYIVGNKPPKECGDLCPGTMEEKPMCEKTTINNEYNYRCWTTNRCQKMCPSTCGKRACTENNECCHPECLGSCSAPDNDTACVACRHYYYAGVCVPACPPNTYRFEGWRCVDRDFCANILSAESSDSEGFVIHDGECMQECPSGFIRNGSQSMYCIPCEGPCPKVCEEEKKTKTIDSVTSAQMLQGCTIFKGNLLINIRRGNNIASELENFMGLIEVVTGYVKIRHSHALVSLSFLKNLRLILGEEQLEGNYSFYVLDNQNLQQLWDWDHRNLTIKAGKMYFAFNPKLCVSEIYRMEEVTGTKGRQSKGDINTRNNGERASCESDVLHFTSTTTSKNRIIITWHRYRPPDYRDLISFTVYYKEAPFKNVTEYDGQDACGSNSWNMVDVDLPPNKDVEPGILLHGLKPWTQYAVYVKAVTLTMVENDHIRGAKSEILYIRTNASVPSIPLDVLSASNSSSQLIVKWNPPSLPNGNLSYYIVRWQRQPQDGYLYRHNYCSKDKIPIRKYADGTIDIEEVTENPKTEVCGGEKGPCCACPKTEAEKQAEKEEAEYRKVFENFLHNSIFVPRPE
T1 sequence (P08069 31-736 limits assumed): as above
T5 sequence (P08069 31-736 limits assumed, one chain of several): as the sequence (P08069 31-736 limits assumed) above
T3 sequence (P08069 31-1367): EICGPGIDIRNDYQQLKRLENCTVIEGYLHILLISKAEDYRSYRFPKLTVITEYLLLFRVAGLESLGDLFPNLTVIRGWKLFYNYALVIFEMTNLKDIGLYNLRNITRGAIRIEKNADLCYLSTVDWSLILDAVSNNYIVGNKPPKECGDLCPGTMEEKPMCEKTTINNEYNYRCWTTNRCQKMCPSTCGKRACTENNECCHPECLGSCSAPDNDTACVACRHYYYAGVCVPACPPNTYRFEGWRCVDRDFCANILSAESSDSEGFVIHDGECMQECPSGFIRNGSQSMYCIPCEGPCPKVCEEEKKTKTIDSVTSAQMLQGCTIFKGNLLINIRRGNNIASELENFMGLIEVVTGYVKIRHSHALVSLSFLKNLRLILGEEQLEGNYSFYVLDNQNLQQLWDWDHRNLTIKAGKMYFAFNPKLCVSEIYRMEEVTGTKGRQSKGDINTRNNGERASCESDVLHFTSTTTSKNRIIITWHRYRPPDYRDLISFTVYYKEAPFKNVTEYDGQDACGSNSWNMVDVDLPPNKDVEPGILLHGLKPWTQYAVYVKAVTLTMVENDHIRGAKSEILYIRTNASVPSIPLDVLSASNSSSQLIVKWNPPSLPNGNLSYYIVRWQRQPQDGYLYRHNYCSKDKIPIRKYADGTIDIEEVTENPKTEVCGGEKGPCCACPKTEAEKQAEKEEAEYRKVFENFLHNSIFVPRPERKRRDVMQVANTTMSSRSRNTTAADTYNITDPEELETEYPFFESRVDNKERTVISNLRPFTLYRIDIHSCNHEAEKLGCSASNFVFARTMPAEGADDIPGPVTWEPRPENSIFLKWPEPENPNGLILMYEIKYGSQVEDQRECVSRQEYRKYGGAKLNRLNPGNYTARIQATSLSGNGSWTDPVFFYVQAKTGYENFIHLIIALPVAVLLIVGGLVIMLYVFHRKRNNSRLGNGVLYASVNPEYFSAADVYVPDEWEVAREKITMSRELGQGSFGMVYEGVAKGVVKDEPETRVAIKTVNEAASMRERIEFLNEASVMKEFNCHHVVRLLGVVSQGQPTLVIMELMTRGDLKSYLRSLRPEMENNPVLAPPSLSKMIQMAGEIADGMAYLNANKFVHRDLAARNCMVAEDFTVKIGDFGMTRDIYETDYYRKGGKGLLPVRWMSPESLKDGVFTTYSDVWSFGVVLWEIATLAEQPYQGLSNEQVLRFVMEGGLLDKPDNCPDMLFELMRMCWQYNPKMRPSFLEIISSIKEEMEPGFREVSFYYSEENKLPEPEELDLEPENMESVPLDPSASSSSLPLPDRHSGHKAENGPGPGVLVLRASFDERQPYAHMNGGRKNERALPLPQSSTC
T4 sequence (P08069 31-1367): as above

CCOC(=O)c1c2c3c(cccc3[nH]c1=O)C(=O)c1ccccc1-2 [NQD1, NQDI-1]
restoration of cell growth in the SSTN-treated cells (UM-SCC47 cells [1]; UM-SCC47, 24 hours, NQD1 up to 30 μmol/L with 30 μmol/L SSTNIGF1R, CellTiter-GLO): 80%
caspase 3 activation induced by 30 μmol/L SSTNIGF1R (UM-SCC47 cells [2]): gradually reduce

LPAGEKPEEGEPVLHVEAEPGFTARDKE [active mSSTNIGF1R]
IC50 (SCC25 cells [3]): 1 to 10 µM
IC50 (UM-SCC47 cells [1]): 1 to 10 µM
cell growth (UM-SCC1 HNSCC cell line): reduced growth
cell growth (UD-SCC2 HNSCC cell line): reduced growth
cell growth (normal HTE cells): unaffected
cell growth (HaCaT keratinocytes): unaffected
cell growth (SCC90 HNSCC cell line): reduced growth
cell growth [4]: unaffected
cell growth (TU-138 HNSCC cell line): reduced growth
cell growth (SCC6 HNSCC cell line): reduced growth

STSTLPAGEGPKEGEAVVLPEVEPGLTAREQE [hSSTNIGF1R]
pT845-ASK-1 staining [5]: Positive staining
pT845-ASK1 staining [6]: pT845 staining indicative of ASK-1 activation
change in apoptotic markers (antibody array) (HaCaT keratinocyte): little or no response
change in apoptotic markers (antibody array) (HTE): little or no response
change in apoptotic markers (antibody array) (NOK): little or no response
change in apoptotic markers (antibody array) (UM-SCC47 cells [7]): significant increases in activated caspase 3 and PARP, and reduced levels of survivin and phosphorylated Erk, Akt, and Bad
change in apoptotic markers (antibody array) (SCC25 cells [8]): significant increases in activated caspase 3 and PARP, and reduced levels of survivin and phosphorylated Erk, Akt, and Bad
half-life [9]: ~24 h
reduction of ITGAV and IGF1R pairing (PLA) ([10]; UW-SCC64 tumors after 3-day treatment): 80%
ITGAV and IGF1R pairing (PLA) ([10]; UW-SCC64 tumors, 5-week treatment): essentially abolished
reduction of ITGAV and IGF1R pairing (PLA) ([11]; plasma concentration 13 μmol/L (injection), versus saline-treated tumors): 90%
ITGAV and IGF1R pairing (PLA) ([11]; plasma concentration 32 μmol/L, pump-mediated delivery): reduced to nearly undetectable levels
serum levels of IGF1 (Serum IGF1 ELISA; animals bearing UW-SCC22 tumors): no change
serum levels of IGF1 (Serum IGF1 ELISA; animals bearing UW-SCC64 tumors): no change
IGF1 (ng/mL) ± SD (Serum IGF1 ELISA; serum of mice bearing UW-SCC22, saline control 34.8 ± 1.0): 34.6 ± 0.9 ng/mL
IGF1 (ng/mL) ± SD (Serum IGF1 ELISA; serum of mice bearing UW-SCC64, saline control 34.0 ± 0.9): 33.7 ± 1.1 ng/mL
IGF1-mediated activation of IGF1R (pY1131) (IGF1R in HaCat cells): unaffected
IGF1-mediated activation of IGF1R (pY1131) (IGF1R in UM-SCC47 cells): blocked
level at time molar [12]: 13 µM
PLA signal, colocalization of IGF1R and ITGAV [13]: signal is lost
reduction of tumor growth compared with controls (UW-SCC22 HNSCC PDX; 4.3 mg/kg/day, Alzet pump): approximately 94%
tumor size after treatment (UW-SCC22 HNSCC PDX; 4.3 mg/kg/day, constant infusion via Alzet pump, start 102 ± 21 mm^3, saline 2,767 ± 631 mm^3): 270 ± 49 mm^3
tumor size after treatment (UW-SCC22 HNSCC PDX; 4.3 mg/kg/day, twice weekly subcutaneous injection): 664 ± 138 mm^3
reduction of tumor growth compared with controls (UW-SCC22 HNSCC PDX; twice weekly subcutaneous injection): 79%
reduction of tumor growth compared with saline-treated controls (UW-SCC64 PDX): 85%
active ASK1 (pT845), pp38MAPK, and pJNK [14]: increased
cell surface expression of Sdc1, IGF1R, ITGAV [15]: no change

inactive mSSTNIGF1R: Inactive control peptide, amino acids 94–119 of mouse Sdc1 (AGEKPEEGEPVLHVEAEPGFTARDKE; UniProt P18828 94-119, looked up, fragment) [reference compound]
effect on cell numbers (SCC25 cells [3]; SCC25, up to 6 days, concentration range, CellTiter-GLO): no effect
effect on cell numbers (UM-SCC47 cells [1]; UM-SCC47, up to 6 days, concentration range, CellTiter-GLO): no effect
